Results: ChEMBL document CHEMBL1142943, “Homology modeling of human Fyn kinase structure: discovery of rosmarinic acid as a new Fyn kinase inhibitor and in silico study of its possible binding modes” (J Med Chem, 2007)

Key:
[1] = molecular target: T1, Tyrosine-protein kinase Fyn (Homo sapiens, UniProt P06241); assay: Inhibition of human Fyn expressed in Sf9 cells at 10 umol/L by ELISA
[2] = molecular target: T1, Tyrosine-protein kinase Fyn; assay: Inhibition of human Fyn expressed in Sf9 cells at 30 umol/L by ELISA
[3] = molecular target: T1, Tyrosine-protein kinase Fyn; assay: Inhibition of human Fyn expressed in Sf9 cells after 20 mins by ELISA in presence of 10 umol/L ATP
[4] = molecular target: T1, Tyrosine-protein kinase Fyn; assay: Inhibition of human Fyn expressed in Sf9 cells after 20 mins by ELISA in presence of 1 umol/L ATP
[5] = molecular target: T1, Tyrosine-protein kinase Fyn; assay: Inhibition of human Fyn expressed in Sf9 cells after 1 min by ELISA in presence of 100 umol/L ATP
[6] = molecular target: T1, Tyrosine-protein kinase Fyn; assay: Inhibition of human Fyn expressed in Sf9 cells after 20 mins by ELISA in presence of 100 umol/L ATP
[7] = molecular target: T1, Tyrosine-protein kinase Fyn; assay: Inhibition of human Fyn expressed in Sf9 cells after 1 min by ELISA in presence of 1 umol/L ATP
[8] = molecular target: T1, Tyrosine-protein kinase Fyn; assay: Inhibition of human Fyn expressed in Sf9 cells after 1 min by ELISA in presence of 10 umol/L ATP

T1 sequence (P06241 whole entry): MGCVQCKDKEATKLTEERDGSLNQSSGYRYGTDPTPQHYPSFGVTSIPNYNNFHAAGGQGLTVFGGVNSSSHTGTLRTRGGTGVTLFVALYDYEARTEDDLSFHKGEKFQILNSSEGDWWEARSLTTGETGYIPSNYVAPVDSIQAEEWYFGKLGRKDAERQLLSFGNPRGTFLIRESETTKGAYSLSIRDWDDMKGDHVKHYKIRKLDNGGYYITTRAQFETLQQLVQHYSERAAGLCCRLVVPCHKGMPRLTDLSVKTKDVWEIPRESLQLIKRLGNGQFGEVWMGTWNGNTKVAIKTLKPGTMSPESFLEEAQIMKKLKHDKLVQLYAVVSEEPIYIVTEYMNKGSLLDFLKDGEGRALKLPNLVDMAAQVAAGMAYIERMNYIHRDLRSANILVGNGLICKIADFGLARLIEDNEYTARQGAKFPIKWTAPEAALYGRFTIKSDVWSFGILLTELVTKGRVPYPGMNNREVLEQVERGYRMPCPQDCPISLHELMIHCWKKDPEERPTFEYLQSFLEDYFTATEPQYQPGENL

Question: With `O=C(/C=C/c1ccc(O)c(O)c1)O[C@H](Cc1ccc(O)c(O)c1)C(=O)O` [ROSMARINIC ACID] as the molecule, how does the Ki [1] read?
Answer: 7.5 µM

Question: What about the Ki [2] of the same molecule?
Answer: 10.2 µM

Question: What about the IC50 [3] of the same molecule?
Answer: 3.6 µM

Question: What about the IC50 [4] of the same molecule?
Answer: 1.3 µM

Question: And the IC50 [5]?
Answer: 63 µM

Question: And the IC50 [6]?
Answer: 17 µM

Question: What about the IC50 [7] of the same molecule?
Answer: 36 µM

Question: And the IC50 [8]?
Answer: 74 µM
